How the values were obtained:
[1] = stability in aqueous media; format: physicochemical; conditions: 0.2 mg/ml; for stability in aqueous media (in words): 50° C. and room temperature; for Stability in aqueous media (24 hrs at 50° C.) / Stability in aqueous media (24 hrs at room temperature): sodium salt in water, free acid in 1:1 water and acetonitrile; for Stability in aqueous media (24 hrs at 50° C.): amber vial
Method: To measure the stability in aqueous media, the sodium salt was dissolved in water at a concentration of 0.2 mg/ml. Due to the very poor aqueous solubility of the free acid, the free acid was dissolved in a 1:1 mixture of water and acetonitrile at the same concentration of 0.2 mg/ml. Samples were kept at 50° C. in an amber vial and at room temperature in an amber vial as well as a clear vial.

[2] = intrinsic dissolution rate (US Pharmacopoeia, chapter 1087); format: physicochemical
Method: The intrinsic dissolution rate was measured by the procedure set out in the US Pharmacopoeia, chapter 1087.

[3] = thermodynamic aqueous solubility measured in water
[4] = XRPD after storage at elevated temperature and humidity (stability of polymorphic form); format: physicochemical
Method: X-Ray Powder Diffraction (XRPD), Ion Chromatography (IC), Karl Fischer titration (KF), Thermogravimetric Analysis (TGA), Differential Scanning Calorimetry (DSC) and high performance liquid chromatography (HPLC) techniques referred to in the examples were carried out under the following conditions: XRPD diffractograms were collected on a Bruker D8 diffractometer using CuKα radiation (40 kV, 40 mA) and a θ-2θ goniometer fitted with a Ge monochromator. The incident beam passed through a 2.0 mm divergence slit followed by a 0.2 mm antiscatter slit and knife edge. The diffracted beam passed through an 8.0 mm receiving slit with 2.5° Soller slits followed by the Lynxeye Detector. The software used for data collection and analysis was Diffrac Plus XRD Commander and Diffrac Plus EVA respectively. Samples were run under ambient conditions as flat plate specimens using powder as received. The sample was prepared on a polished, zero-background (510) silicon wafer by gently pressing onto the flat surface or packed into a cut cavity.
The XRPD spectra shown in FIG. 1 were obtained directly after preparation of the product, after storage for 1 week and for 5 weeks at 40° C. and 75% relative humidity, and after storage for 1 week and for 5 weeks at 25° C. and 97% relative humidity.
The XRPD spectra shown in FIG. 3 were obtained directly after preparation of the product, after storage for 1 week at 40° C. and 75% relative humidity, and after storage for 1 week at 25° C. and 97% relative humidity.

physchem = conditions: water, thermodynamic from solid

| SMILES | stability in aqueous media (in words) [1] | Stability in aqueous media (24 hrs at 50° C.) [1] | Stability in aqueous media (24 hrs at room temperature) [1] | Intrinsic dissolution rate (at pH 2) [2] | Aqueous Solubility ([3]; thermodynamic, in water) | solubility ([3]; water, thermodynamic from solid) | intrinsic dissolution rate relative to that of the free acid ([2]; sodium salt versus free acid) | stability with respect to conversion into other polymorphic forms (XRPD) ([4]; storage 1 week and 5 weeks at 40° C. and 75% relative humidity, and 1 week and 5 weeks at 25° C. and 97% relative humidity) | solubility (physchem) | resulting pH of aqueous solution ([3]; in water at solubility of 81 mg/ml) | polymorphic form stability on storage at elevated humidity (XRPD) ([4]; 1 week at 25° C. and 97% relative humidity) | polymorphic form stability on storage at elevated temperature (XRPD) ([4]; 1 week at 40° C. and 75% relative humidity) |
| --- | --- | --- | --- | --- | --- | --- | --- | --- | --- | --- | --- | --- |
| CC(C)n1ccc(S(=O)(=O)NC(=O)Nc2c3c(cc4c2CCC4)CCC3)n1 [Comparative Example 1, N-((1,2,3,5,6,7-hexahydro-s-indacen-4-yl)carbamoyl)-1-isopropyl-1H-pyrazole-3-sulfonamide free acid, reference compound] | unstable | 94% degradation | 37% degradation | 4 μg/min · mm^2 | <0.5 mg/mL | < 0.5 mg/mL |  |  |  |  |  |  |
| CC(C)n1ccc(S(=O)(=O)NC(=O)Nc2c3c(cc4c2CCC4)CCC3)n1.O.[Na] [Example 2, N-((1,2,3,5,6,7-hexahydro-s-indacen-4-yl)carbamoyl)-1-isopropyl-1H-pyrazole-3-sulfonamide monosodium monohydrate] | stable in aqueous media | 2.7% degradation | No significant | 10 μg/min · mm^2 |  |  | at least twice as high | shows stability with respect to conversion into other polymorphic forms | 81 mg/mL | 9.7 |  |  |
| CC(C)n1ccc(S(=O)(=O)NC(=O)Nc2c3c(cc4c2CCC4)CCC3)n1.[Na] [Example 3, N-((1,2,3,5,6,7-hexahydro-s-indacen-4-yl)carbamoyl)-1-isopropyl-1H-pyrazole-3-sulfonamide monosodium anhydrate] |  |  |  |  |  |  |  |  |  |  | converts to the monosodium monohydrate (Form 1) | stable at elevated temperature |

Reference: patent publication US10973803B2, “Sodium salt of N-((1,2,3,5,6,7-hexahydro-s-indacen-4-yl)carbamoyl)-1-isopropyl-1H-pyrazole-3-sulfonamide” (INFLAZOME LIMITED, priority 2018, dated 2021)
